From patent publication US6153745A, “Relating to mutagenesis of nucleic acids” (Amersham Pharmacia Biotech UK Limited, priority 1995, dated 2000)
Values after ≈ are worked out from the molar mass of the structure shown. “Also recorded” adds a separate entry of the source. Read-outs that look alike come from different tables or passages of the source.

Columns and labels:
Taq Polymerase [1] = molecular target: T1, Taq Polymerase (Thermus aquaticus, UniProt P19821); test: Steady state kinetics of insertion opposite template A or G, primed synthetic oligonucleotide templates; type: biochemical; details: for Relative Efficiency / Vmax /Km / Vmax^(rel): 55° C.
T1 sequence (P19821 whole entry): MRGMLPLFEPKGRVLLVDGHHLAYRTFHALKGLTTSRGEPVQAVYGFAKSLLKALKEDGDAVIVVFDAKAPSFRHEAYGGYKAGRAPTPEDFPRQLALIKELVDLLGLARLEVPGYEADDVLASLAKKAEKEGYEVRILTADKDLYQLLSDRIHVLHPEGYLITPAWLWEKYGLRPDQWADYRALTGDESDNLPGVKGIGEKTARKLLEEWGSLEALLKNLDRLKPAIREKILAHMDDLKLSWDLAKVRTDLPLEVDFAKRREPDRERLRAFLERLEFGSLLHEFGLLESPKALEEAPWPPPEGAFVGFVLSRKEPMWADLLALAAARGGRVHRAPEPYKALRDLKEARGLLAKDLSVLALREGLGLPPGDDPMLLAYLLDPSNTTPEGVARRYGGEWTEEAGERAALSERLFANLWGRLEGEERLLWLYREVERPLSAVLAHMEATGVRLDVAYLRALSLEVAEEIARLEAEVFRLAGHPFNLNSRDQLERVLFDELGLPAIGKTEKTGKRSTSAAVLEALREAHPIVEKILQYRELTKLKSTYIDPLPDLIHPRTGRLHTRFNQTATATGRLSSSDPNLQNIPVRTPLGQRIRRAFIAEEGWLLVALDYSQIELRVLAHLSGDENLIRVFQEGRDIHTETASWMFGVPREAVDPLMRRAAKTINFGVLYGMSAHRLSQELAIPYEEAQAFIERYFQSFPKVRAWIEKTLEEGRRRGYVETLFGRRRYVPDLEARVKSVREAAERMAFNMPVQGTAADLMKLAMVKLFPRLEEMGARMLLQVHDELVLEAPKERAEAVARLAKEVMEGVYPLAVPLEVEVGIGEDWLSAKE
Source text: FIGS. 5A-D show (Top): Plots of initial velocities against [dNTP] for the incorporation by Taq polymerase of dPTP opposite A (A), TTP opposite A (B), dPTP opposite G (C), and dCTP opposite G (D).
In order to compare the relative efficiencies of insertion of dPTP opposite template adenine and guanine residues respectively, we adopted the procedure of Boosalis et al. (Boosalis et al., 1987 J. Biol. Chem. 262, 14689-14696) for the determination of steady state kinetics using one of two primed synthetic oligonucleotide templates (FIG. 5). The ^32 P-labelled primer in each case was extended by the incorporation of dGTP at two positions, followed by dPTP (template 1 and 2), TTP (template 1) or dCTP (template 2). Separation of the products by PAGE followed by quantitation of the radioactivity using a PhosphorImager allowed the determination of the initial velocities (Boosalis et al., 1987). Due to the very high extension rate of Taq polymerase, the kinetic parameters were determined at 55° C. The velocities for the insertion of the particular triphosphate opposite template (Vmax) and Km values (μM) for particular insertions were determined from non-linear regression fitting to the Michaelis-Menten equation.

target DNA sequence MH22 = test: PCR mutagenesis of target DNA, cloning and sequencing; type: biochemical; details: for Number of point mutations, coding / Number of point mutations, silent / Number of point mutations, total: bases sequenced: dPTP 4093, 8-oxodGTP 5463, dPTP & 8-oxodGTP 3751; for additional (unexpected) mutations found: dPTP: out of 4093 bp, 8-oxodGTP: out of 5463 bp; for linear relation of mutation frequency with number of PCR cycles, up to: equimolar
Procedure: The four normal dNTPs and the analogues were used in equimolar amounts (500 μM);
Data obtained after different number of PCR cycles have been pooled and figures express percentage of total number of mutations;
Numbers at the top of the Table indicate how many times a particular codon is present in the target sequence. Open squares indicate single point mutations within a particular codon. Filled circles indicate two point mutations within a particular codon. […] Squares in shaded areas indicate silent mutations;
Filled in symbols indicate a single nucleotide change within a codon, open symbols denote two nucleotide changes within the same codon. […] Amino acids are grouped in five classes according to their physico-chemical characteristics: glycine, non-polar, polar, positively charged, and negatively charged.
The first number at the 5'-end of each sequence indicates how many PCR cycles were allowed in the presence of the analogue(s). The second number identifies different clones.
In order to investigate the mutations resulting when dPTP or 8oxodGTP was used in DNA synthesis reactions, PCR reactions were set up in which dPTP was added in equimolar concentrations to the four normal dNTPs. The DNA was amplified for a variable number of cycles and, in order to eliminate the incorporated base analogues, an aliquot of the amplified DNA was used as template in a second PCR amplification in which only the four normal dNTPs were used. The PCR product was subsequently cloned, and some of the clones sequenced (in this way, the pattern of mutation was not influenced by the DNA repair mechanisms of the E. coli host).
DNA amplification reactions were carried out for variable number of cycles, as indicated in FIGS. 11A-11C by the number preceding the point in the clone designation.
For mutagenesis experiments, 10 fmoles of template DNA were amplified using 0.5 μl of AmpliTaq polymerase (5 U/μl, Applied Biosystems) in a 20 μl reaction containing the appropriate sense and antisense […] at 0.5 μM, 2 mM MgCl2, 10 mM Tris-HCl pH8.3, 50 mM KCl, 1 g/l gelatine and dATP, dCTP, dGTP, TTP, dPTP and/or 8-oxodGTP, each at 500 μM. After various cycles (92° C. for 1 min, 55° C. for 1.5 min, 75° C. for 5 min), 1 μl of the amplified material was used in a second PCR in which the same conditions as above were used except that no dPTP or 8-oxodGTP were added to the reaction mixture. The product of the second PCR was digested with BstEII and PstI and cloned into M13VHPCRl vector (Jones et al., 1986 Nature 321, 522-525).

Taq Polymerase [2] = molecular target: T1, Taq Polymerase; test: Substrate for Taq polymerase in PCR, replacing normal dNTPs; type: biochemical
Procedure: All dNTPs were at 500 μM, except in sample 4 and 7 where dPTP was at 1 mM.
B) The PCR reaction mix included: dATP, dCTP and TTP at 500 μm. Samples 1 to 4 contained dGTP at 50 μM, 25 μM, […] and 6.25 μM respectively, and 8-oxodGTP at 500 μM. Samples 5 to 8 contained the same decreasing amounts of dGTP but no 8-oxodGTP;
Lanes 5 to 8 show the PCR products obtained using the same conditions but in the absence of 8-oxodGTP.

Taq Polymerase [3] = molecular target: T1, Taq Polymerase; details: cited from earlier work
TEM-1 β-lactamase = molecular target: T2, TEM-1 β-lactamase (Escherichia coli, UniProt P62593); test: Cefotaxime resistance / hydrolytic activity of TEM-1 β-lactamase and mutants in E. coli; type: cell-based; details: wild type TEM-1
T2 construct: mutants cloned in pBC KS+
T2 sequence (P62593 24-286 limits assumed): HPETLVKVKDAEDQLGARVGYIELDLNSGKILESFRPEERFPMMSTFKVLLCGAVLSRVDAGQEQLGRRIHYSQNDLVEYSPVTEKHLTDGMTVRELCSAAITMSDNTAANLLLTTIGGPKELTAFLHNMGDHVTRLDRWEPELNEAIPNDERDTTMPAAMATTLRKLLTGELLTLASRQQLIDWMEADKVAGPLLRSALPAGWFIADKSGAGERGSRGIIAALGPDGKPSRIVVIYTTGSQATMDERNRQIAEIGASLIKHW
Procedure: In this experiment we set to improve the hydrolytic activity of the enzyme TEM-1 β-lactamase on the poorly hydrolysed substrate cefotaxime [minimum inhibitory concentration (MIC)=0.02 μg/ml] by repeated rounds of random mutagenesis and selection on increasing concentrations of the antibiotic. The best mutants selected in the first round are subjected to a second round of mutagenesis and selection in the presence of higher concentration of antibiotic. A stepwise improvement of the efficiency of TEM-1 hydrolytic activity is attained by progressively increasing the selective pressure.
The wild type TEM-1 gene from the plasmid pBR322 was used as a template for PCT amplification in the presence of dPTP and 8-oxodGTP in addition to the four normal dNTPs. The pool of mutants generated was cloned in the vector pBC KS^+ and the library of mutants transformed in E. coli by electroporation. […] Selected mutant were analysed by sequencing and the results of the first round of mutagenesis and selection are shown in Table 3A. A different number of cycles of the mutagenic PCT was used to generate four independent libraries of mutants (libA, libB, libC and libD) each characterised by a different frequency of mutation (0.3% for libA, 0.3% for libB, 1.8% for libC and 6.3% for libD), as determined by sequence analysis of unselected clones. […]

[4] = tested on: thermostable Tth DNA polymerase; details: Pavlov et al., 1994; cited from earlier work
[5] = tested on: E.coli DNA polymerase I Klenow fragment; details: 37° C., Purmal et al., 1994, cited from earlier work
[6] = Singer et al. 1989; cited from earlier work

O=C1NC2=NOCCC2=CN1[C@H]1C[C@H](O)[C@@H](COP(=O)(O)OP(=O)(O)OP(=O)(O)O)O1 [dPTP, 6-(2-deoxy-β-D-erythropentofuranosyl)-3,4-dihydro-8H-pyrimido-[4,5-c][1,2]oxazine-7-one 5'-triphosphate]
incorporation efficiency opposite template adenine versus guanine (Taq Polymerase [1]): approximately three times more efficiently opposite template adenine than guanine residues
recognition by Taq polymerase compared with TTP (Taq Polymerase [1]): virtually indistinguishable from TTP in terms of its recognition by Taq polymerase
Relative Efficiency (Taq Polymerase [1]; template A): 0.99
Vmax /Km (Taq Polymerase [1]; template A): 165000 M⁻¹
Vmax^(rel) (Taq Polymerase [1]; template A): 0.86 ± 0.06
Relative Efficiency (Taq Polymerase [1]; template G): 0.11
Vmax /Km (Taq Polymerase [1]; template G): 57000 M⁻¹
Vmax^(rel) (Taq Polymerase [1]; template G): 0.69 ± 0.08
mutagenic efficiency compared (target DNA sequence MH22): much more efficient mutagen than 8-oxodGTP
types of mutation produced (target DNA sequence MH22): four transitions (A→G, T→C, G→A and C→T)
A→G mutations of total mutations (target DNA sequence MH22; 500 μM, pooled cycles): 46.6%
C→T mutations of total mutations (target DNA sequence MH22; 500 μM, pooled cycles): 8%
G→A mutations of total mutations (target DNA sequence MH22; 500 μM, pooled cycles): 9.2%
T→C mutations of total mutations (target DNA sequence MH22; 500 μM, pooled cycles): 35.5%
codons mutated to alternative ones, out of 43 codons present (target DNA sequence MH22; 12 mutant clones, equimolar with dNTPs): 40 codons
Number of point mutations, coding (target DNA sequence MH22): 318
Number of point mutations, silent (target DNA sequence MH22): 66
Number of point mutations, total (target DNA sequence MH22): 384
additional (unexpected) mutations found (target DNA sequence MH22): one T→G and two A→T transversions
linear relation of mutation frequency with number of PCR cycles, up to (target DNA sequence MH22; 500 μM): 20 cycles
replacement of TTP in PCR (Taq Polymerase [2]; 350 base pair DNA, 30 cycles): could completely replace TTP and yield amounts of product comparable to those obtained using the four normal triphosphates
replacement of dCTP in PCR (Taq Polymerase [2]; 350 base pair DNA, 30 cycles): could replace dCTP to some extent

O=P(O)(O)OP(=O)(O)OP(=O)(O)OC[C@H]1O[C@@H](n2cnc3c(O)ncnc32)C[C@@H]1O [dITP, deoxyinosine triphosphate]
substrate quality for Taq polymerase (Taq Polymerase [3]; prior art): poor substrate for Taq Polymerase and cannot support DNA synthesis when replacing any of the four normal dNTPs

Cc1cn([C@H]2C[C@H](O)[C@@H](COP(=O)(O)OP(=O)(O)OP(=O)(O)O)O2)c(=O)[nH]c1=O [TTP]
Relative Efficiency (Taq Polymerase [1]; template A): 1.00
Vmax /Km (Taq Polymerase [1]; template A): 167000 M⁻¹
Vmax^(rel) (Taq Polymerase [1]; template A): 1.02 ± 0.11

CO/N=C(\C(=O)N[C@@H]1C(=O)N2C(C(=O)O)=C(COC(C)=O)CS[C@H]12)c1csc(N)n1 [cefotaxime]
minimum inhibitory concentration (MIC) (TEM-1 β-lactamase): 0.02 µg/mL (≈ 0.0439 µM)

CON=c1[nH]c(N)nc2c1ncn2[C@H]1C[C@H](O)[C@@H](COP(=O)(O)OP(=O)(O)OP(=O)(O)O)O1 [dKTP, 2-Amino-9-(2-deoxy-β-D-erythropentofuranosyl)-6-methoxyaminopurine 5'-triphosphate]
replacement of dATP and dGTP in PCR (Taq Polymerase [2]; 350 base pair DNA, 30 cycles): could replace dATP and dGTP, but only to a limited extent

Nc1nc2c(nc(O)n2[C@H]2C[C@H](O)[C@@H](COP(=O)(O)OP(=O)(O)OP(=O)(O)O)O2)c(=O)[nH]1 [8-oxodGTP, 2'-Deoxy-8-hydroxyguanosine 5'-triphosphate]
A→C transversions rate [4]: approximately 1%
types of mutation produced (target DNA sequence MH22): two transversions (A→C and T→G)
A→C transversions of total mutations (target DNA sequence MH22; 500 μM, pooled cycles): 38.8%
T→G transversions of total mutations (target DNA sequence MH22; 500 μM, pooled cycles): 59%
codons replaced (target DNA sequence MH22; 8 mutant clones, equimolar with dNTPs): 18 codons
Number of point mutations, coding (target DNA sequence MH22): 65
Number of point mutations, silent (target DNA sequence MH22): 16
Number of point mutations, total (target DNA sequence MH22): 91
additional (unexpected) mutations found (target DNA sequence MH22): One C→A transversion; also recorded: two A→G transitions and one G→A transition
linear relation of mutation frequency with number of PCR cycles, up to (target DNA sequence MH22; 500 μM): ≥ 30 cycles
Km ([5]; read-out: Km for insertion opposite A): 58 µM
Km ([5]; read-out: Km for insertion opposite C): 63 µM
incorporation into DNA and its extension (Taq Polymerase [2]; normal or limiting dGTP, higher 8-oxodGTP): some incorporation into DNA and its extension could be demonstrated

CON=c1[nH]c(N)nc2c1ncn2[C@H]1C[C@H](O)[C@@H](CO)O1 [K]
recognition of template DNA containing the analogue by polymerases (Taq Polymerase [3]): recognised by polymerases such as Taq polymerase in PCR and Sequenase™ in DNA sequencing

O=C1NC2=NOCCC2=CN1[C@H]1C[C@H](O)[C@@H](CO)O1 [P]
recognition of template DNA containing the analogue by polymerases (Taq Polymerase [3]): recognised by polymerases such as Taq polymerase in PCR and Sequenase™ in DNA sequencing

CCOc1nc(=O)c(C)cn1[C@H]1C[C@H](O)[C@@H](COP(=O)(O)OP(=O)(O)OP(=O)(O)O)O1 [O^2 -ethylthymidine triphosphate]
A→T transversions induced [6]: induces A→T transversions, albeit at a low frequency

Nc1ccn([C@H]2C[C@H](O)[C@@H](COP(=O)(O)OP(=O)(O)OP(=O)(O)O)O2)c(=O)n1 [dCTP]
Relative Efficiency (Taq Polymerase [1]; template G): 1.00
Vmax^(rel) (Taq Polymerase [1]; template G): 1.01 ± 0.09
